pIC50: −log10 of the molar value. Where two headings read alike, the source gives them in different places.
Columns and labels:
[1] = target: MAP4K4 (h) (Homo sapiens (Human), UniProt O95819); test: MAP4K4 in vitro kinase assay (radiometric); type: biochemical; settings: read-out: MAP4K4_IC50
Description: (§1) (specific activity and concentration as required). The reaction is initiated by the addition of the Mg/ATP mix. After incubation for 40 minutes at room temperature, the reaction is stopped by the addition of phosphoric acid to a concentration of 0.5%.

[2] = target: TNIK (Homo sapiens (Human), UniProt Q9UKE5); test: TNIK enzymatic assay (radiometric kinase inhibition); type: biochemical
Chain of TNIK (Q9UKE5 whole entry): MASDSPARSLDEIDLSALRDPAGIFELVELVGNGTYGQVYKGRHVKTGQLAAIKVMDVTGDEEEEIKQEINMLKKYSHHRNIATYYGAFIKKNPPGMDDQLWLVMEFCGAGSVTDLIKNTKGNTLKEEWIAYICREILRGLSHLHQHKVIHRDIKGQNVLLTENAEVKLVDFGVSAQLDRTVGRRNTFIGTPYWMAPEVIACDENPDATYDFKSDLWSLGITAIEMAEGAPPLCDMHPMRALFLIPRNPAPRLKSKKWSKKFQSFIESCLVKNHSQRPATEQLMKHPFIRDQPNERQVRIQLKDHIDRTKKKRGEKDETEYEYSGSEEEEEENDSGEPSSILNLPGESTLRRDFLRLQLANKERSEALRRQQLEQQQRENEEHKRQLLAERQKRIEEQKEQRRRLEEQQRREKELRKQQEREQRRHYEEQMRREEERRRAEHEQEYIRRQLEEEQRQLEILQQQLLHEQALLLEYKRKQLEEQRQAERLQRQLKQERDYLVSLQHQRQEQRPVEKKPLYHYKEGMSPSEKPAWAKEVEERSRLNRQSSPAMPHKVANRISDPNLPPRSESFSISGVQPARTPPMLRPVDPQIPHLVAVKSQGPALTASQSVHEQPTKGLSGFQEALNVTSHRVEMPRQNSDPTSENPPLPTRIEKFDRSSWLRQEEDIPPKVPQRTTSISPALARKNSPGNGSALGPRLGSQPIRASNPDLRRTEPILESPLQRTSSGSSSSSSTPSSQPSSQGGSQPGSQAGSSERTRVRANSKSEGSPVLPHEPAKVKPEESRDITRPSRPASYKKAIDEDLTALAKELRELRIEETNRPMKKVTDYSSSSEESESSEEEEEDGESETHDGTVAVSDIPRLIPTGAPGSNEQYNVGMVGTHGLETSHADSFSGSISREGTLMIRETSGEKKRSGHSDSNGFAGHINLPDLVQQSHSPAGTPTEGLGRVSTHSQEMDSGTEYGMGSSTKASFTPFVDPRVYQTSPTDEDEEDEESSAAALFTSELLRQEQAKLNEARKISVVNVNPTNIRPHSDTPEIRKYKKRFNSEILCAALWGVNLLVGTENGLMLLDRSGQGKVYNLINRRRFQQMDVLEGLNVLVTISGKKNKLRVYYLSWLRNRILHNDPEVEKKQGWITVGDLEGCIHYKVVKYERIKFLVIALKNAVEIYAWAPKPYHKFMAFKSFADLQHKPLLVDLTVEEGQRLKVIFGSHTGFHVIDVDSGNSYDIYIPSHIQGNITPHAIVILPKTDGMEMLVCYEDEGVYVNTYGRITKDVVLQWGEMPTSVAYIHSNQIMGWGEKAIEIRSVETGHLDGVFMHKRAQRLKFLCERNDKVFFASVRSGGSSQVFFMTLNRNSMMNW
Description: as §1, with “The compounds were studied for function as TNIK inhibitors to generate the data of Table 1. […] (specific” for “(specific”

[3] = TNIK enzymatic assay, Table 1, read-out: IC50

Chain of MAP4K4 (h) (O95819 whole entry): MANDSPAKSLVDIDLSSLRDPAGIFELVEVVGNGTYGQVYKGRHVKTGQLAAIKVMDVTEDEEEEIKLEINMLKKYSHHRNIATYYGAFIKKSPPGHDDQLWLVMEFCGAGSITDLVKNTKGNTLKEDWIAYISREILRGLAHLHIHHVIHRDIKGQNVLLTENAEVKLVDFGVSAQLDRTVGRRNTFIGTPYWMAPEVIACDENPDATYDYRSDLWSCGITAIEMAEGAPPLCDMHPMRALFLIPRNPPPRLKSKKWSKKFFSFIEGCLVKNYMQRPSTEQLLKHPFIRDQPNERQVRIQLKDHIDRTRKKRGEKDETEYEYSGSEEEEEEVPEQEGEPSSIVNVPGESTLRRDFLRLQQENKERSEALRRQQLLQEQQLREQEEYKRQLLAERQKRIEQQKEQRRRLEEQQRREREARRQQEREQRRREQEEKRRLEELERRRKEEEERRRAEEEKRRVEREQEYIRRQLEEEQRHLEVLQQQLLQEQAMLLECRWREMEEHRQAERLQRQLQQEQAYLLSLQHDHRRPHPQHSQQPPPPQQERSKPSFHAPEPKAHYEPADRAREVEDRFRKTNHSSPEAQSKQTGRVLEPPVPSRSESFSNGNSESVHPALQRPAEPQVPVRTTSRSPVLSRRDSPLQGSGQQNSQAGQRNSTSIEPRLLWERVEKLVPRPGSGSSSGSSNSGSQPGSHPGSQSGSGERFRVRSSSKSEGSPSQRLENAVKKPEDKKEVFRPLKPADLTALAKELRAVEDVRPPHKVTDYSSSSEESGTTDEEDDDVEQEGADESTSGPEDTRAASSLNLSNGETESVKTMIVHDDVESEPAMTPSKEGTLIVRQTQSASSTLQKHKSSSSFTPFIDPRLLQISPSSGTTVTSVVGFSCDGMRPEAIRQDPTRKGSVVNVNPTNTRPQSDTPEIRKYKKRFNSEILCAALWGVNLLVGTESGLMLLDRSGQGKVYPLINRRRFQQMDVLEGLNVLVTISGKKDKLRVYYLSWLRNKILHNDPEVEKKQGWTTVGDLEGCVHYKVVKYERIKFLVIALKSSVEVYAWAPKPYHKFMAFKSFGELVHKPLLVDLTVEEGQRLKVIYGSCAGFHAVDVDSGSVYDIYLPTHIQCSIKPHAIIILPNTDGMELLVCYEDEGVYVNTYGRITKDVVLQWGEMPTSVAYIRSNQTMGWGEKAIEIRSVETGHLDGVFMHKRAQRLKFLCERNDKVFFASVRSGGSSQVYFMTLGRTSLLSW

SMILES	pIC50 [1]	pIC50 [2, 3]	pIC50 ([2]; read-out: TNIK_IC50)
Cc1cccc(C)c1NC(=O)c1ccc(-c2c(-c3ccc(F)cc3)ncn2C2CCCCC2)o1 [Compound 60, 5-(1-cyclohexyl-4-(4-fluorophenyl)-1H-imidazol-5-yl)-N-(2,6-dimethylphenyl)furan-2-carboxamide]	< 6.00	6.06	6.06
CCc1ccccc1NC(=O)c1ccc(-c2c(-c3ccc(F)cc3)ncn2C2CCCCC2)o1 [Compound 61, 5-(1-cyclohexyl-4-(4-fluorophenyl)-1H-imidazol-5-yl)-N-(2-ethylphenyl)furan-2-carboxamide]	6.61	6.79	6.79
O=C(Nc1ccccc1F)c1ccc(-c2c(-c3ccc(F)cc3)ncn2C2CCCCC2)o1 [Compound 62, 5-(1-cyclohexyl-4-(4-fluorophenyl)-1H-imidazol-5-yl)-N-(2-fluorophenyl)furan-2-carboxamide]	7.33	7.60	7.60
O=C(Nc1cccc(F)c1)c1ccc(-c2c(-c3ccc(F)cc3)ncn2C2CCCCC2)o1 [Compound 63, 5-(1-cyclohexyl-4-(4-fluorophenyl)-1H-imidazol-5-yl)-N-(3-fluorophenyl)furan-2-carboxamide]	6.90	6.97	6.97
CCOc1ccc(NC(=O)c2ccc(-c3c(-c4ccc(F)cc4)ncn3C3CCCCC3)o2)cc1 [Compound 64, 5-(1-cyclohexyl-4-(4-fluorophenyl)-1H-imidazol-5-yl)-N-(4-ethoxyphenyl)furan-2-carboxamide]	6.76	7.21	7.21
Cc1ccccc1NC(=O)c1ccc(-c2c(-c3ccc(F)cc3)ncn2C2CCCCC2)o1 [Compound 65, 5-(1-cyclohexyl-4-(4-fluorophenyl)-1H-imidazol-5-yl)-N-(o-tolyl)furan-2-carboxamide]	6.50	6.82	6.82
Cc1ccc(NC(=O)c2ccc(-c3c(-c4ccc(F)cc4)ncn3C3CCCCC3)o2)cc1Cl [Compound 66, N-(3-chloro-4-methylphenyl)-5-(1-cyclohexyl-4-(4-fluorophenyl)-1H-imidazol-5-yl)furan-2-carboxamide]	< 6.00	6.27	6.27
Cc1ccc(NC(=O)c2ccc(-c3c(-c4ccc(F)cc4)ncn3C3CCCCC3)o2)c(C)c1 [Compound 67, 5-(1-cyclohexyl-4-(4-fluorophenyl)-1H-imidazol-5-yl)-N-(2,4-dimethylphenyl)furan-2-carboxamide]	6.61	7.11	7.11
Cc1ccc(NC(=O)c2ccc(-c3c(-c4ccc(F)cc4)ncn3C3CCCCC3)o2)c(Cl)c1 [Compound 68, N-(2-chloro-4-methylphenyl)-5-(1-cyclohexyl-4-(4-fluorophenyl)-1H-imidazol-5-yl)furan-2-carboxamide]	7.14	7.72	7.72
Cc1ccc(NC(=O)c2ccc(-c3c(-c4ccc(F)cc4)ncn3C3CCCCC3)o2)cc1C [Compound 69, 5-(1-cyclohexyl-4-(4-fluorophenyl)-1H-imidazol-5-yl)-N-(3,4-dimethylphenyl)furan-2-carboxamide]	6.54	7.05	7.05
Cc1cc(C)c(NC(=O)c2ccc(-c3c(-c4ccc(F)cc4)ncn3C3CCCCC3)o2)c(C)c1 [Compound 70, 5-(1-cyclohexyl-4-(4-fluorophenyl)-1H-imidazol-5-yl)-N-mesitylfuran-2-carboxamide]	< 6.00	6.03	6.03
CC(=O)c1cccc(NC(=O)c2ccc(-c3c(-c4ccc(F)cc4)ncn3C3CCCCC3)o2)c1 [Compound 71, N-(3-acetylphenyl)-5-(1-cyclohexyl-4-(4-fluorophenyl)-1H-imidazol-5-yl)furan-2-carboxamide]	6.20	6.82	6.82
CSc1cccc(NC(=O)c2ccc(-c3c(-c4ccc(F)cc4)ncn3C3CCCCC3)o2)c1 [Compound 72, 5-(1-cyclohexyl-4-(4-fluorophenyl)-1H-imidazol-5-yl)-N-(3-(methylthio)phenyl)furan-2-carboxamide]	6.20	6.62	6.62
CC(C)c1ccc(NC(=O)c2ccc(-c3c(-c4ccc(F)cc4)ncn3C3CCCCC3)o2)cc1 [Compound 73, 5-(1-cyclohexyl-4-(4-fluorophenyl)-1H-imidazol-5-yl)-N-(4-isopropylphenyl)furan-2-carboxamide]	6.57	7.32	7.32
CCc1cccc(NC(=O)c2ccc(-c3c(-c4ccc(F)cc4)ncn3C3CCCCC3)o2)c1 [Compound 74, 5-(1-cyclohexyl-4-(4-fluorophenyl)-1H-imidazol-5-yl)-N-(3-ethylphenyl)furan-2-carboxamide]	6.52	6.49	6.49
O=C(Nc1ccc(F)c(F)c1)c1ccc(-c2c(-c3ccc(F)cc3)ncn2C2CCCCC2)o1 [Compound 75, 5-(1-cyclohexyl-4-(4-fluorophenyl)-1H-imidazol-5-yl)-N-(3,4-difluorophenyl)furan-2-carboxamide]	6.37	6.72	6.72
O=C(Nc1ccc(Cl)cc1F)c1ccc(-c2c(-c3ccc(F)cc3)ncn2C2CCCCC2)o1 [Compound 76, N-(4-chloro-2-fluorophenyl)-5-(1-cyclohexyl-4-(4-fluorophenyl)-1H-imidazol-5-yl)furan-2-carboxamide]	7.15	7.38	7.38
COc1ccc(C)cc1NC(=O)c1ccc(-c2c(-c3ccc(F)cc3)ncn2C2CCCCC2)o1 [Compound 77, 5-(1-cyclohexyl-4-(4-fluorophenyl)-1H-imidazol-5-yl)-N-(2-methoxy-5-methylphenyl)furan-2-carboxamide]	7.21	7.57	7.57
CC(=O)Nc1ccc(NC(=O)c2ccc(-c3c(-c4ccc(F)cc4)ncn3C3CCCCC3)o2)cc1 [Compound 78, N-(4-acetamidophenyl)-5-(1-cyclohexyl-4-(4-fluorophenyl)-1H-imidazol-5-yl)furan-2-carboxamide]	7.46	7.82	7.82
COc1ccccc1NC(=O)c1ccc(-c2c(-c3ccc(F)cc3)ncn2C2CCCCC2)o1 [Compound 79, 5-(1-cyclohexyl-4-(4-fluorophenyl)-1H-imidazol-5-yl)-N-(2-methoxyphenyl)furan-2-carboxamide]	7.65	7.80	7.80
O=C(Nc1ccccc1F)c1ccc(-c2c(-c3ccc(F)cc3)ncn2CC2CCCN2)o1 (stereo not drawn) [Compound 88, N-(2-fluorophenyl)-5-(4-(4-fluorophenyl)-1-(pyrrolidin-2-ylmethyl)-1H-imidazol-5-yl)furan-2-carboxamide]	4.91	5.07	5.07
O=C(Nc1ccccc1F)c1ccc(-c2c(-c3cncnc3)ncn2C2CCCC2)o1 [Compound 94, 5-(1-cyclopentyl-4-(pyrimidin-5-yl)-1H-imidazol-5-yl)-N-(2-fluorophenyl)furan-2-carboxamide]	< 5.00	–	< 5.00
O=C(Nc1ccc(-c2c(-c3ccc(F)cc3)ncn2C2CCCC2)o1)c1ccccc1F [Compound 95, N-(5-(1-cyclopentyl-4-(4-fluorophenyl)-1H-imidazol-5-yl)furan-2-yl)-2-fluorobenzamide]	6.26	–	6.32
O=C(Nc1ccncc1F)c1ccc(-c2c(-c3ccc(F)cc3)ncn2CC2CCOC2)o1 (stereo not drawn) [Compound A-36, 5-(4-(4-fluorophenyl)-1-((tetrahydrofuran-3-yl)methyl)-1H-imidazol-5-yl)-N-(3-fluoropyridin-4-yl)furan-2-carboxamide]	6.79	–	7.08
COc1cnccc1NC(=O)c1ccc(-c2c(-c3ccc(F)cc3)ncn2CC2CCOC2)o1 (stereo not drawn) [Compound A-37, 5-(4-(4-fluorophenyl)-1-((tetrahydrofuran-3-yl)methyl)-1H-imidazol-5-yl)-N-(3-methoxypyridin-4-yl)furan-2-carboxamide]	7.30	–	7.58
COc1cnccc1NC(=O)c1ccc(-c2c(-c3ccc(F)cc3)ncn2C2CCOC2)o1 (stereo not drawn) [Compound A-38, 5-(4-(4-fluorophenyl)-1-(tetrahydrofuran-3-yl)-1H-imidazol-5-yl)-N-(3-methoxypyridin-4-yl)furan-2-carboxamide]	> 8.00	–	8.38
O=C(Nc1ccncn1)c1ccc(-c2c(-c3ccc(F)cc3)ncn2C2COCC2(F)F)o1 (stereo not drawn) [Compound A-40, 5-(1-(4,4-difluorotetrahydrofuran-3-yl)-4-(4-fluorophenyl)-1H-imidazol-5-yl)-N-(pyrimidin-4-yl)furan-2-carboxamide]	7.30	–	7.58
O=C(Nc1c(O)cncc1F)c1ccc(-c2c(-c3ccc(F)cc3)ncn2C2COCC2(F)F)o1 (stereo not drawn) [Compound A-41, 5-(1-(4,4-difluorotetrahydrofuran-3-yl)-4-(4-fluorophenyl)-1H-imidazol-5-yl)-N-(3-fluoro-5-hydroxypyridin-4-yl)furan-2-carboxamide]	< 6.00	–	6.50
O=C(Nc1cc[nH]c(=O)c1)c1ccc(-c2c(-c3ccc(F)cc3)ncn2C2COCC2(F)F)o1 (stereo not drawn) [Compound A-42, 5-(1-(4,4-difluorotetrahydrofuran-3-yl)-4-(4-fluorophenyl)-1H-imidazol-5-yl)-N-(2-oxo-1,2-dihydropyridin-4-yl)furan-2-carboxamide]	6.64	–	6.91
Cc1cc(NC(=O)c2ccc(-c3c(-c4ccc(F)cc4)ncn3C3COC3)o2)c(F)cn1 [Compound A-48, N-(5-fluoro-2-methylpyridin-4-yl)-5-(4-(4-fluorophenyl)-1-(oxetan-3-yl)-1H-imidazol-5-yl)furan-2-carboxamide]	6.71	–	7.30

Reference: US11739078B2, “Methods of inhibiting kinases” (INSILICO MEDICINE IP LIMITED, priority 2019, dated 2023)
